The target of assay [1] is T1, Prostaglandin D2 receptor 2 (Homo sapiens) (UniProt Q9Y5Y4).
T1 sequence (whole entry): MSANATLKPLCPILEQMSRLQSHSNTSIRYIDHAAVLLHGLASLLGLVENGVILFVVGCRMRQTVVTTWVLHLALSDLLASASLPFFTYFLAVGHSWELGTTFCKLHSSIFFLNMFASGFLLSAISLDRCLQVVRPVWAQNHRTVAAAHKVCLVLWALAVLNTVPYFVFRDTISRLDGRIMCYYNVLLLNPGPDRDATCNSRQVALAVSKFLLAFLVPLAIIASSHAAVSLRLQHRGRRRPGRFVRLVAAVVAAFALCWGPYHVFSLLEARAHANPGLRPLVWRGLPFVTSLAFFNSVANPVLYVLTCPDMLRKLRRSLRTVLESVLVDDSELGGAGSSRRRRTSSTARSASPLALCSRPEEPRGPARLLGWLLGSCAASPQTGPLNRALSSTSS
As to the kind of experiment: Antagonist activity at human CRTH2 receptor expressed in HEK385-7 cells assessed as inhibition of PGD2-mediated beta-arrestin translocation preincubated 5 mins prior to PGD2 challenge measured after 5 mins by BRET assay relative to control. Type of assay: functional, cell-based.

Assay [2] concerns the target T2, Prostaglandin D2 receptor 2 (Homo sapiens, UniProt Q9Y5Y4).
T2 sequence (Q9Y5Y4 whole entry): T1 sequence (whole entry)
The assay is described as follows: Antagonist activity at human CRTH2 receptor expressed in HEK385-7 cells assessed as inhibition of PGD2-mediated beta-arrestin translocation preincubated 5 mins prior to PGD2 challenge measured after 5 mins by BRET assay. It counts as functional, cell-based.

Assay [3] deals with T2, Prostaglandin D2 receptor 2. As to the kind of experiment: Displacement of [3H]PGD2 from human CRTH2 receptor expressed in HEK385-7 cells. Type of assay: cell-based. (In a radioligand displacement assay an active substance lowers the binding of a labelled ligand.)
In assay [4] the target is T3, Prostaglandin D2 receptor 2 (Rattus norvegicus, UniProt Q6XKD3).
T3 sequence (Q6XKD3 whole entry): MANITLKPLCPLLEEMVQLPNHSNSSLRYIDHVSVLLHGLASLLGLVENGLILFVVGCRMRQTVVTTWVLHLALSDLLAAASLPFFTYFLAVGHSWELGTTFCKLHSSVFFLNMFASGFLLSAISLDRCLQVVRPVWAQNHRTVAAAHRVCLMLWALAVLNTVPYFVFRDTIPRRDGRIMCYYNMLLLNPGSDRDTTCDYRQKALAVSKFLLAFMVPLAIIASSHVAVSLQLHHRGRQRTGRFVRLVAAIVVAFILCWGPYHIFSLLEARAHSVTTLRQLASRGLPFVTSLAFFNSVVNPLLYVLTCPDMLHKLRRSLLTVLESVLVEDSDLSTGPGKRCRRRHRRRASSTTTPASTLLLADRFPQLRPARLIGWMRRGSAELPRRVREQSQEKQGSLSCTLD
As to the kind of experiment: Inhibition of rat CRTH2 receptor.

The target of assay [5] is T4, Prostaglandin D2 receptor 2 (Mus musculus, UniProt Q9Z2J6).
T4 sequence (Q9Z2J6 whole entry): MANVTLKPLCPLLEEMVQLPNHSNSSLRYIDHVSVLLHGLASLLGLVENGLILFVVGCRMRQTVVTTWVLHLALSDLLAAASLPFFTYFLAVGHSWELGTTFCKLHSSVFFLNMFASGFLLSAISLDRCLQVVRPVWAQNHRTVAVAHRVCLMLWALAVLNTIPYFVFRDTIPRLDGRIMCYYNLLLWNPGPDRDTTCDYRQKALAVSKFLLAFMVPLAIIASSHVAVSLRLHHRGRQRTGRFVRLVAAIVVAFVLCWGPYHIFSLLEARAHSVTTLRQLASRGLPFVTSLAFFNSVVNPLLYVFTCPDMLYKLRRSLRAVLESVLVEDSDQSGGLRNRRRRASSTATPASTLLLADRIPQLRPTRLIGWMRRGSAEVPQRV
The assay is described as follows: Inhibition of mouse CRTH2 receptor.

Assay [6] deals with T5, Prostaglandin D2 receptor (Homo sapiens, UniProt Q13258).
T5 sequence (Q13258 whole entry): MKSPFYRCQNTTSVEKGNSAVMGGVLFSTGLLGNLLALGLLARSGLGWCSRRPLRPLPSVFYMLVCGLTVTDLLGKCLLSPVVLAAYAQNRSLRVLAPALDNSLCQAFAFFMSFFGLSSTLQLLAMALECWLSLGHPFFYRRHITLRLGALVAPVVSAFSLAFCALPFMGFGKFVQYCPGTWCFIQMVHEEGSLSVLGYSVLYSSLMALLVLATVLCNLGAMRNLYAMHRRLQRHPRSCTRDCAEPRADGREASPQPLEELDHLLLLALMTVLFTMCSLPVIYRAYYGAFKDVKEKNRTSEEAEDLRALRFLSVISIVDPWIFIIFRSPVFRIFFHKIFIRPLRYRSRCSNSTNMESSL
As to the kind of experiment: Inhibition of human DP receptor.

Assay [7] deals with T6, Thromboxane A2 receptor (Homo sapiens, UniProt P21731).
T6 sequence (P21731 whole entry): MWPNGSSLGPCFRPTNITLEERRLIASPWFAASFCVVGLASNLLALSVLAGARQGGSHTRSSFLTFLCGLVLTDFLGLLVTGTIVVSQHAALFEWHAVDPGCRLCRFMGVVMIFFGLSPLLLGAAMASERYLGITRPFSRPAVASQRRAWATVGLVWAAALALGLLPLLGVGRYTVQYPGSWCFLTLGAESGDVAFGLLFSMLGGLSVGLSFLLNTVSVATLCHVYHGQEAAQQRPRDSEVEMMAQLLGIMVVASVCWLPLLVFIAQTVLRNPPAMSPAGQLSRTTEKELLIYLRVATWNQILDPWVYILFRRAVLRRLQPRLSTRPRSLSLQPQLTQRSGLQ
As to the kind of experiment: Inhibition of thromboxane A2 receptor.

The target of assay [8] is T7, Chemoattractant receptor-homologous molecule expressed on Th2 cells (Cavia porcellus, UniProt Q56D28).
T7 sequence (Q56D28 whole entry): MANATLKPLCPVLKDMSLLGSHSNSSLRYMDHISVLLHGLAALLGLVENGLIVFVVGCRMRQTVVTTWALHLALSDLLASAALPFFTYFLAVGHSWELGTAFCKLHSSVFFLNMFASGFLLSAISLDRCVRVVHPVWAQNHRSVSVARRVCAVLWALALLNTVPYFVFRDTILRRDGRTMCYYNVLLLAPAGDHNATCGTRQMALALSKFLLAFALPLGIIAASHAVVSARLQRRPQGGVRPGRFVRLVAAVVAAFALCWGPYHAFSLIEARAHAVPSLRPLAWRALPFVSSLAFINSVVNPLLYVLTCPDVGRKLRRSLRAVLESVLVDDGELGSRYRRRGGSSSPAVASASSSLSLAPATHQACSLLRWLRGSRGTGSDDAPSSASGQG
As to the kind of experiment: Inhibition of guinea pig CRTH2 receptor.

Assay [9] can be described thus: Inhibition of guinea pig DP receptor. On the set-up: species or system Cavia porcellus.
In assay [10] the target is T8, Prostaglandin D2 receptor (Mus musculus, UniProt P70263).
T8 sequence (P70263 whole entry): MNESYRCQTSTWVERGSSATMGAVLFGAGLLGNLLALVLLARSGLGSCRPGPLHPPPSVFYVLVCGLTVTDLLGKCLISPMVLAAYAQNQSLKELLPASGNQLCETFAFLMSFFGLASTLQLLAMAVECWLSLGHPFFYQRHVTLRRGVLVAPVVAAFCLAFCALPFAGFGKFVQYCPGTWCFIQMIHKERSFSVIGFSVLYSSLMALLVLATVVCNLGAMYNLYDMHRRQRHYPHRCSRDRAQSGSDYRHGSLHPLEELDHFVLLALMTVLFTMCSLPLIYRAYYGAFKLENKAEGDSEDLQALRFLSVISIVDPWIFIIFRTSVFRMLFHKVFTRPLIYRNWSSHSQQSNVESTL
As to the kind of experiment: Inhibition of mouse DP receptor.

Structures are written as SMILES.

Usually IC50 stands for the concentration needed to halve the response being measured. Turning to `O=C(O)Cc1cnc(N(c2ccc(F)cc2)c2ccc(F)cc2)nc1-c1cccc(F)c1`, the Efficacy in assay [1] was over 80%. In addition, the IC50 in assay [2] was over 100000 nM; in [3], 1260 nM.

Regarding `O=C(O)CCc1sc(C(c2ccc(F)cc2)c2ccc(F)cc2)nc1-c1cccc(F)c1`, the Efficacy in assay [1] is over 80%. Besides, the results for the IC50 in assay [2] and in assay [3] were 1000 nM and 75 nM, respectively.

On to `O=C(O)COc1sc(C(c2ccc(F)cc2)c2ccc(F)cc2)nc1-c1cccc(F)c1`, for which the Efficacy in assay [1] is over 80%. For the same molecule, the IC50 was 200 nM in [2] and 83 nM in assay [3].

As to `O=C(O)Cc1sc(N(c2ccccc2)c2ccccc2)nc1-c1ccc(Cl)cc1`, in [1], the Efficacy is over 80%. In addition, the IC50 in assay [2] was found to be 72 nM; in assay [3], 18 nM.

With `CS(=O)(=O)c1ccc(N(c2ccccc2)c2nc(-c3ccc(F)cc3)c(CC(=O)O)s2)cc1`, the Efficacy in assay [1] is over 30%. Moreover, the values for the IC50 in assay [2] and in [3] were 2000 nM and 190 nM, respectively.

Consider `COc1ccc(N(c2ccc(OC)cc2)c2ncc(CC(=O)O)c(-c3cccc(F)c3)n2)cc1`, for which, in assay [1], the Efficacy was over 80%. Besides, the IC50 in [2] was over 100000 nM; in assay [3], 2790 nM.

Take `O=C(O)Cc1sc(N(c2ccccc2)c2cccnc2)nc1-c1ccc(F)cc1`: in assay [1], the Efficacy is over 30%. Further, the IC50 in assay [2] was determined as 1500 nM; in assay [3] it was 43 nM.

`O=C(O)Cc1sc(N(c2ccccc2)c2ccccc2)nc1-c1cccc(F)c1`: the Efficacy in assay [1] was over 80%. Also, the values for the IC50 in [2] and in [3] were 79 nM and 4.4 nM, respectively.

Take `O=C(O)CCc1cnc(C(c2ccc(F)cc2)c2ccc(F)cc2)nc1-c1cccc(F)c1`: the Efficacy in assay [1] was over 80%. Also, the figures for the IC50 in assay [2] and in assay [3] were over 100000 nM and 2070 nM, respectively.

For `O=C(O)Cc1sc(N(c2ccc(F)cc2)c2ccc(F)cc2)nc1-c1ccc(F)cc1`, the Efficacy in assay [1] was over 80%. In addition, the IC50 in [2] came to 240 nM; in assay [3], 23 nM.

Regarding `COc1ccc(N(c2ccc(OC)cc2)c2nc(-c3cccc(F)c3)c(CC(=O)O)s2)cc1`, the Efficacy in assay [1] was over 80%. For the same molecule, the IC50 in [2] came to 260 nM; in assay [3] it was 15 nM.

Turning to `O=C(O)Cc1sc(N(c2ccccc2)c2ccccc2)nc1-c1ccc(F)cc1`, the Efficacy in assay [1] is over 80%. Moreover, the IC50 in [2] came to 98 nM; in assay [3], 15 nM.

Regarding `O=C(O)Cc1cnc(C(c2ccc(F)cc2)c2ccc(F)cc2)nc1-c1cccc(F)c1`, the IC50 in assay [4] turned out to be 7.5 nM; in assay [5], 3.4 nM; in assay [6] it was 8500 nM; in assay [7], 31000 nM; in [2] it was 12 nM; in [8], 29 nM. Moreover, the IC50 is 1.9 nM in [3], over 100000 nM in assay [9] and 5900 nM in [10]. The Efficacy in [1] is over 80%.

Regarding `CC(c1ccccc1)(c1ccccc1)c1nc(-c2ccc(F)cc2)c(CC(=O)O)s1`, the Efficacy in assay [1] was over 80%. In addition, the IC50 is 85 nM in assay [2] and 7.9 nM in assay [3].

As to `O=C(O)Cc1[nH]c(C(c2ccc(F)cc2)c2ccc(F)cc2)nc1-c1ccc(F)cc1`, in assay [1], the Efficacy is over 80%. The IC50 in assay [2] was over 100000 nM; in assay [3], 9140 nM.

Consider `N#Cc1ccc(N(c2ccccc2)c2nc(-c3ccc(F)cc3)c(CC(=O)O)s2)cc1`, for which the Efficacy in assay [1] is over 55%. Besides, the figures for the IC50 in [2] and in assay [3] were 460 nM and 84 nM, respectively.

(Values after ChEMBL document CHEMBL1154943, “Exploration of SAR features by modifications of thiazoleacetic acids as CRTH2 antagonists” (Bioorg Med Chem Lett, 2010).)
